{
  "source": "patent US20250340701A1",
  "about": "“DENDRIMER-DELIVERED ALPHA-PARTICLE RADIOTHERAPY FOR TREATMENT OF GLIOBLASTOMA AND OTHER CANCERS IN THE BRAIN” (priority 2022, published 2025)",
  "test_system": "GL261 glioblastoma cells",
  "assay": "Colony survival measurement, GL261 glioblastoma cells",
  "type": "cell-based, murine",
  "description": "GL261 glioblastoma cells were incubated with different radioactivity concentrations of ^225Ac-DOTA dendrimer; cells were plated for colony survival measurement.\nCells, plated at 500,000 cells per well, were plated in 6-well plates and were allowed to adhere overnight before being incubated with varying concentrations of radioactivity (4.63, 9.25, 18.5, 37, 74 kBq/mL) at pH 7.4 for a duration of 6 hours. In case of the combination runs with temozolomide (TMZ), the free drug incubation at respective concentrations, was performed simultaneously with the radioactivity for a duration of 6 hours. […] Once cell colonies were observed (approximately 6 weeks for the cancer cells and approximately 3 weeks for the macrophages), the media was removed, dishes were washed with water, and the colonies were fixed and stained using 6% (w/v) glutaraldehyde and 0.05% (w/v) Crystal violet, respectively, following which they were counted using a colony counter pen. The number of colonies counted for each of the treatment groups was then normalized by the number of colonies from the control group to obtain the survival fraction, while accounting for the plating efficiency. The same procedure was used to obtain the survival fractions for free chemotherapeutic treatment, replacing the radioactivity concentrations with free chemotherapeutic concentration while incubating the cells. […]",
  "data": [
    {"smiles": "O=C([O-])CN1CCN(CC(=O)[O-])CCN(CC(=O)[O-])CCN(CC(=O)[O-])CC1.[225Ac+3]", "note": "[^225Ac-DOTA]", "values": [
      {"measurement": "colony survival fraction of GL261 cells versus resting and activated BV2 macrophages", "setting": "FIG. 8 left", "result": "significantly lower"},
      {"measurement": "GL261 colony survival fraction in the presence of TMZ versus without TMZ", "setting": "TMZ incubated simultaneously for 6 hours, at 2.1-3.7 times less than its IC50, FIG. 10 left, FIG. 12", "result": "lower"}
    ]}
  ]
}
